Several values for one entry are separate records, joined by “and”; a condition that tells them apart may be missing. Equal entries are not always repeated. Marks after values point to notes of the source that are not given here.

The subject of assay [1] is Guinea pig hearts. The assay is described as follows: Arrhythmia score and ventricular fibrillation in isolated perfused hearts. The note with it: without or with CGP-37157; for Incidence of VF: hearts with VF / hearts, ouabain treatment and isoproterenol stimulation; for arrhythmia score: ten-minute ouabain treatment (0.25 μM), modified Score A, 0-4. From the text:
(§1) Guinea pig hearts were quickly excised under anesthesia and mounted on a modified Langendorff apparatus attached to a Powerlab system (AD Instruments, Colorado Springs, Colo.). Hearts were perfused with gassed (95/5% O2/CO2) control buffer containing: 118-mM NaCl, 24-mM NaHCO3, 1.2-mM KH2PO4, 4.75-mM KCl, 1.2-mM MgSO4, 2.0-mM CaCl2, and 10-mM glucose. A buffer-filled latex balloon (Harvard apparatus) was inserted through the mitral valve into the left ventricle. Hearts were suspended in a buffer-filled heating chamber maintained at 37° C. and two electrodes were placed into the bath for volume-conducted electrocardiogram recordings. Heart rate, left ventricular developed pressure (LVDP), maximal rates of contraction and relaxation (±dP/dt), oxygen consumption, and electrocardiograms (ECG) were recorded on a computer. After a ten-minute equilibration period, hearts were subjected to the following protocol: ten-minute baseline recording while the heart was perfused with control buffer, ten-minute recording while 0.25-μM ouabain with or without 1 μM CGP-37157, and sixty-minute recording while hearts were stimulated with 25-nM isoproterenol. The measurements of hemodynamic parameters were determined by taking the average during the last two minutes before ouabain treatment (baseline) and for two minutes during the maximal effect on LVDP of either ouabain or isoproterenol.
Arrhythmias were characterized in accordance with the Lambeth Conventions, see Walker, M. J., et al., Cardiovasc. Res., 22(7):447-455 (July 1988), and scores were tabulated for the ten-minute period of ouabain treatment using modified Score A as described by Curtis, M. J. and Walker, M. J., “Quantification of arrhythmias using scoring systems: an examination of seven scores in an in vivo model of regional myocardial ischaemia,” Cardiovasc. Res., 22(9):656-665 (September 1988). Briefly, each heart was given a score based on the following criteria: 0: <50 ventricular premature beats; 1: 50-499 ventricular premature beats; 2: >500 ventricular premature beats and/or one episode of spontaneously reverting ventricular tachycardia or ventricular fibrillation; 3: more than one episode of spontaneously reverting ventricular tachycardia or fibrillation (<2 min); 4: >2 min of ventricular tachycardia or fibrillation.

The subject of assay [2] is Guinea pig hearts. Kind of assay: Oxygen consumption in isolated perfused hearts.
From the text: as §1
Cardiac O2 concentration was measured with an O2 probe attached to a PowerLab system (AD Instruments). The probe was calibrated with 95% O2-saturated buffer as 100% and 100% N2-saturated buffer as 0%. The molar concentration of O2 consumption was calculated from percentage concentration with the following equation: VO2(μmol/min/g dwt)=CF×(0.02373/22.414)×((760−p)/760)×(ΔO2%/100)/dwt
where CF is coronary flow (mL/min); 0.02373 is the absorption coefficient of O2 in H2O at 37° C.; 22.414 is the volume (L) of 1 mol gas at STP; 760 is 1 atm in mm Hg; p equals 47.067, which is the vapor pressure of H2O at 37° C.; ΔO2% is the difference in O2 percentage concentration between inflow buffer collected from cannula before heart was mounted and outflow buffer collected from pulmonary artery; dwt is dry heart weight.

The subject of assay [3] is Guinea pig ventricular myocytes. The assay is described as follows: Mitochondrial NADH autofluorescence in isolated myocytes during 1-Hz stimulation. The assay is classed as cell-based. The note with it: 1-μM ouabain + 100-nM isoproterenol, without (ouabain) or with 1 μM CGP-37157; for NADH level before stimulation: before 1-Hz stimulation; for NADH level by the end of stimulation: end of 1-Hz stimulation (three minutes). As for the experimental part:
(§2) Guinea pig ventricular myocytes were isolated by enzymatic digestion as described previously. O'Rourke, B., et al., “Oscillations of membrane current and excitability driven by metabolic oscillations in heart cells,” Science, 265(5174):962-966 (Aug. 12, 1994). Cells were suspended in Dulbecco's Modification of Eagle's Medium (DMEM) supplemented with 5% fetal bovine serum, 1% penicillin/streptomycin, and 15 mmol/L HEPES, pH 7.4, and stored in a 5% CO2 incubator at 37° C.
(§3) Cytosolic Ca^2+ ([Ca^2+]c), mitochondrial Ca^2+ ([Ca^2+]m), and [Na^+]i were measured with the fluorescent indicators indo-1, rhod-2, and sodium-binding benzofuran isophthalate (SBFI), respectively (Invitrogen, Carlsbad, Calif.), and mitochondrial NADH was measured as the cellular autofluorescence with 360-nm excitation/450-nm emission. Indo-1 was loaded into cell with the membrane permeable form, indo-1 AM. To minimize indo-1 loading into the mitochondrial compartment, cells were briefly incubated with indo-1 AM at room temperature for 20 min. Rhod-2 and SBFI experiments were carried out as previously described. Maack et al., supra, Liu and O'Rourke, supra. Cytoplasmic rhod-2 was eliminated by using rhod-2-free patch pipettes. Maack et al., supra, Liu and O'Rourke, supra. The ROS-sensitive fluorescent probe 5-(−6)-chloromethyl-2′,7′-dichlorohydrofluorescein diacetate (CM-H2DCFDA) was used to monitor the extent of oxidative stress, as previously described. Aon, M. A., et al., “Synchronized whole cell oscillations in mitochondrial metabolism triggered by a local release of reactive oxygen species in cardiac myocytes,” J. Biol. Chem., 278(45):44735-44744 (Nov. 7, 2003). This probe is primarily localized in the mitochondrial matrix, see Aon et al., supra, and is oxidized by hydrogen peroxide to yield fluorescent CM-DCF, thus indirectly reporting mitochondrial superoxide production.
Isolated ventricular myocytes were loaded into a heated field-stimulation chamber (Warner Instruments, Hamden, Conn.) at 37° C. on the stage of a fluorescence microscope (Nikon Eclipse TE300, Nikon Instruments, Inc., Melville, N.Y.). The myocytes were first superfused with control Tyrode's solution containing: NaCl (130 mmol/L), KCl (5 mmol/L), MgCl2 (1 mmol/L), Na-HEPES (10 mmol/L), CaCl2 (2 mmol/L), glucose (10 mmol/L), at pH 7.4. After one minute of recording in the absence of electrical stimulation in control buffer, 1-μM ouabain and 100-nM isoproterenol, with or without 1 μM CGP-37157, were added to buffer. After another five minutes of recording, myocytes were field-stimulated at 1 Hz for three minutes followed by a two-minute recording after returning to the resting state. To record [Ca^2+]m and action potentials, myocytes were whole-cell patch-clamped at 37° C. […]

Assay [4] has the same test system. The assay is described as follows: ROS / oxidative stress (CM-H2DCFDA, CM-DCF oxidation) in isolated myocytes. The assay is classed as cell-based. The conditions noted are these: 100-nM isoproterenol with 1-μM ouabain, without or with 1-μM CGP-37157; 1-Hz stimulation. As for the experimental part:
as §2
Cytosolic Ca^2+ ([Ca^2+]c), mitochondrial Ca^2+ ([Ca^2+]m), and [Na^+]i were measured with the fluorescent indicators indo-1, rhod-2, and sodium-binding benzofuran isophthalate (SBFI), respectively (Invitrogen, Carlsbad, Calif.), and mitochondrial NADH was measured as the cellular autofluorescence with 360-nm excitation/450-nm emission. Indo-1 was loaded into cell with the membrane permeable form, indo-1 AM. To minimize indo-1 loading into the mitochondrial compartment, cells were briefly incubated with indo-1 AM at room temperature for 20 min. Rhod-2 and SBFI experiments were carried out as previously described. Maack et al., supra, Liu and O'Rourke, supra. […]
Isolated ventricular myocytes were loaded into a heated field-stimulation chamber (Warner Instruments, Hamden, Conn.) at 37° C. on the stage of a fluorescence microscope (Nikon Eclipse TE300, Nikon Instruments, Inc., Melville, N.Y.). […]

For assay [5] the test system is unchanged. Kind of assay: Cytosolic Ca2+ ([Ca2+]c, indo-1) cycling in isolated myocytes. The assay is classed as cell-based. The note with it: ouabain without or with CGP-37157; for diastolic [Ca2+]c before stimulation / diastolic [Ca2+]c after three minutes of stimulation / increase of amplitude of [Ca2+]c transient (Δ[Ca2+]c) compared to control: 100-nM isoproterenol; for diastolic [Ca2+]c before stimulation: before 1-Hz stimulation; for diastolic [Ca2+]c after three minutes of stimulation: end of 1-Hz stimulation; for increase of amplitude of [Ca2+]c transient (Δ[Ca2+]c) compared to control: midpoint of 1-Hz stimulation, control = isoproterenol only; for spontaneous Ca2+ oscillations / discordant contractions: prolonged stimulation. As for the experimental part:
as §2, §3
Isolated ventricular myocytes were loaded into a heated field-stimulation chamber (Warner Instruments, Hamden, Conn.) at 37° C. on the stage of a fluorescence microscope (Nikon Eclipse TE300, Nikon Instruments, Inc., Melville, N.Y.). The myocytes were first superfused with control Tyrode's solution containing: NaCl (130 mmol/L), KCl (5 mmol/L), MgCl2 (1 mmol/L), Na-HEPES (10 mmol/L), CaCl2 (2 mmol/L), glucose (10 mmol/L), at pH 7.4. After one minute of recording in the absence of electrical stimulation in control buffer, 1-μM ouabain and 100-nM isoproterenol, with or without 1 μM CGP-37157, were added to buffer. After another five minutes of recording, myocytes were field-stimulated at 1 Hz for three minutes followed by a two-minute recording after returning to the resting state. To record [Ca^2+]m and action potentials, myocytes were whole-cell patch-clamped at 37° C. Tyrode's solution was used as external solution and the internal solution contained: NaCl (10 mmol/L), KCl (19 mmol/L), K-glutamate (125 mmol/L), MgCl2 (0.5 mmol/L), HEPES (10 mmol/L), MgATP (5 mmol/L), at pH 7.25.

Where [6] appears, read: after ten minutes treatment of ouabain, without or with CGP-37157.

Consider `C[C@@H]1O[C@@H](O[C@H]2C[C@@H](O)[C@]3(CO)[C@H]4[C@H](O)C[C@]5(C)[C@@H](C6=CC(=O)OC6)CC[C@]5(O)[C@@H]4CC[C@]3(O)C2)[C@H](O)[C@H](O)[C@H]1O` [ouabain, 1β,3β,5β,11α,14,19-Hexahydroxycard-20(22)-enolide 3-(6-deoxy-α-L-mannopyranoside, reference compound], for which, in assay [1], the “Incidence of VF” value is 7 out of 8 and 7/8; the arrhythmia score was 2.7±0.5. Further, the “increase of whole-heart oxygen consumption (VO2) compared to baseline” value (“increase … to baseline” for short) in assay [2] (setting [6]) is listed as 18%. Further, in assay [3], the “NADH level before stimulation” value is listed as 81.7±1.8% and the “NADH level by the end of stimulation” value is 52.3±5.7%. Besides, the “oxidation of CM-DCF (oxidative stress)” value in assay [4] is reported as “higher rates of oxidation of CM-DCF”. Also, in assay [5], the “diastolic [Ca2+]c before stimulation” value came to 123 ± 9 nM; the “diastolic [Ca2+]c after three minutes of stimulation” value is 750 ± 142 nM; the “increase of amplitude of [Ca2+]c transient (Δ[Ca2+]c) compared to control” value is on record as 112%; the “spontaneous Ca2+ oscillations / discordant contractions” value was “developed spontaneous Ca^2+ oscillations, extrasystolic contractions, and eventual hypercontracture”.

As for `O=C1CSC(c2ccccc2Cl)c2cc(Cl)ccc2N1` (stereo not shown) [CGP-37157, 7-chloro-5-(2-chlorophenyl)-1,5-dihydro-4,1-benzothiazepin-2(3H)-one], in assay [1], the “Incidence of VF” value is given as 2 out of 7 and the arrhythmia score is 1.1±0.4. The “Incidence of VF” value in assay [1] (listed as CGP) is reported as 2/7*. The “increase … to baseline” value in assay [2] (setting [6]) is given as 32%. Moreover, the “increase … to baseline” value in assay [2] (ouabain followed by isoproterenol, without (isoproterenol) or with CGP-37157) is 53%. In assay [3], the “NADH level before stimulation” value was 78.3±3.2% and the “NADH level by the end of stimulation” value is reported as 80.6±2.5%. Further, the “oxidation of CM-DCF (oxidative stress)” value in assay [4] is given as “abolished the increase in oxidative stress induced by ouabain”. Further, in assay [5], the “diastolic [Ca2+]c before stimulation” value is 99 ± 14 nM, the “diastolic [Ca2+]c after three minutes of stimulation” value amounted to 370 ± 60 nM, the “increase of amplitude of [Ca2+]c transient (Δ[Ca2+]c) compared to control” value is 74% and the “spontaneous Ca2+ oscillations / discordant contractions” value is on record as “significantly reduced the incidence of discordant contractions”.

Values taken from patent publication US8791079B2, “Methods for treating heart failure by inhibiting the mitochondrial sodium-calcium exchanger (mNCE)” (priority 2009, dated 2014).
